{"source": "patent US9199200B2", "about": "“Submerged membrane bioreactor system and biological methods for removing bisphenol compounds from municipal wastewater” (Centre de Recherche Industrielle de Québec (CRIQ), priority 2010, dated 2015)", "key": {"[1]": {"test": "Adsorption kinetics of BPA on inactivated sludge (pseudo-first order, pseudo-second order, Elovich)", "assay_type": "physicochemical", "procedure": "According to the second set of assays, adsorption kinetic is evaluated using 200 mL of inactivated sludge at 15 g L^−1 and 2.0 mg/L of BPA is initially used. The flasks are shaken at 150 rpm at 22±2° C. and samples are taken at regular interval times (5, 10, 15, 20, 30, 40, 60, 80, 100, 120 min). Several appropriate models are reported in literature, but for the purposes of the experiments, three models are used, namely the Lagergren model (first order model) as described by Lagergren in Kung Sven. Veten. Hand 24 (1898) 1-39, the pseudo-second-order as described by Ho et al. in Process Biochemistry 34 (1999) 451-465, and the Elovich model as described in Chemical reviews (1960) 267-312.\nAdsorption kinetic allows controlling the efficiency of the process and can be helpful to understand the mechanisms of the sorption process. To evaluate the sorption rate, the kinetic data are modeled using pseudo-first order and pseudo-second order equations. The kinetic models parameters are estimated by regression analysis method using Excel™ software. In accordance with Lagegren as cited above and with Bhattacharya et al., J. Env. Eng. ASCE 110 (1984) 110-122, pseudo-first order chemical sorption is described by the following equation (Eq. (15)):\nThis model is based on the assumption that the rate is proportional to the number of free sites. Integrating Eq. (15) with boundary conditions qt=0 at t=0 and qt=qt at t=t gives (Eq. (16)): ln(qe−qt)=ln qe−k1t (16)\nIn accordance with Ho et al. as cited above, for the rate constant of pseudo-second order chemical sorption, the following equation (Eq. (17)) has been also applied: […]\nA third model, known as Elovich model described in Low et al. cited above, has been applied using the following equation (Eq. (19)): […]\nIf an amount (q0) of adsorbate is instantaneously adsorbed, after integration equation Eq. (20) becomes (Eq. (21)): […]"}, "[2]": {"test_system": "biomass (activated sludge) of the SMBR", "test": "COD removal in submerged membrane bioreactor (SMBR) fed synthetic wastewater contaminated by BPA", "excerpt": "According to another embodiment, a submerged membrane bioreactor system (SMBR) operated at the laboratory scale is represented in the diagram of FIG. 1. The pilot unit is comprised of ZEEWEED® (ZW-1) hollow-fibre membranes of 0.04 μm rated pore diameter and 0.047 m^2 total filtering surface area, assembled vertically. The membrane unit is provided by Zenon Environmental & Co (Oakville, ON, Canada). ZW-1 membrane, whose module contains 80 fibres of 20 cm length, may be either operated in closed loop or in continuous mode of operation, through a stirred 6 L tank of 19.1 cm water high. Filtration may be achieved by drawing water through the membrane under a slight vacuum generated by a peristaltic pump (11) and measured by a manometer (10) located just after the membrane on the aspiration line. Air may be supplied through an extended aeration tube located inside the membrane module and also used to attach it vertically. The filtration of the effluent may be carried out intermittently (5 min of filtration followed by 30 s of pause) but air should be continuously injected in the SMBR system. An oxygen probe (5) may be connected to an oxymeter and installed in the bioreactor tank to measure dissolved oxygen concentration. The air flow-rate may be measured using a flow-meter (17). pH and temperature can also be measured during the experiments by using pH (8) and temperature (9) probes installed in the bioreactor tank.\nAccording to some embodiments of the present invention, the SMBR system may be seeded by activated sludge collected from any suitable municipal wastewater treatment plant. The first step consists in developing the biomass by using a synthetic wastewater of a known composition carried out according known techniques. For example, the initial biomass may be developed using glucose as an organic substrate (400-2000 mg/L of COD), although any other suitable sources of carbon may be employed as organic substrates, for example sodium acetate or peptone. The biomass is developed over a period of time suitable to obtain a sufficiently concentrated biomass. […]\nAccording to an embodiment, the biomass may be acclimatized in oxidizing the bisphenol compound over of period of time sufficient to obtain a biomass capable of oxidizing said bisphenol compound. […] It is worth noting that, during both successive stages (biomass development and biomass acclimatization), the performance of the SMBR was evaluated by the measurements of COD. […]\nDuring the experimental work, samples are taken for different analyses. […] BPA is also analyzed using liquid chromatography mass spectrometer (LC-MS/MS) after extraction and purification on a solid phase. […]"}, "[3]": {"settings": "2.0 mg/L BPA, 15 g/L inactivated sludge"}}}
{"smiles": "CC(C)(c1ccc(O)cc1)c1ccc(O)cc1", "note": "[BPA, 2,2-Bis(4-hydroxyphenyl)propane]", "values": [{"measurement": "q0 as share of the amount of BPA adsorbed at equilibrium (qe)", "setting": "[1]", "result": 1.2, "unit": "%"}, {"measurement": "k1, pseudo-first order rate constant", "setting": "[1]; [3]", "result": 0.032, "unit": "min⁻¹"}, {"measurement": "k2, pseudo-second order rate constant", "setting": "[1]; [3]", "result": 0.194, "unit": "g/mg/min"}, {"measurement": "q0, amount of BPA instantaneously adsorbed (Elovich)", "setting": "[1]; [3]", "result": 0.0013, "unit": "mg/g"}, {"measurement": "qe, pseudo-first order (Lagergren)", "setting": "[1]; [3]", "result": 0.109, "unit": "mg/g"}, {"measurement": "qe, pseudo-second order", "setting": "[1]; [3]", "result": 0.132, "unit": "mg/g"}, {"measurement": "α (Elovich)", "setting": "[1]; [3]", "result": 24.98, "unit": "g/mg"}, {"measurement": "α (Elovich), second parameter", "setting": "[1]; [3]", "result": 0.0040, "unit": "mg/g/min"}, {"measurement": "BPA concentration at the entry of the SMBR from which foam is observed in the mixed liquor (perturbation in the bacterial activity)", "setting": "[2]; 14 g VSS/L, HRT 6 h", "result": "≥ 25", "unit": "mg/L"}, {"measurement": "Volumetric loading at which BPA became toxic for the bacterial activity", "setting": "[2]; SMBR, around 5.0 mg/L BPA", "result": 21.6, "unit": "g BPA/m^3/d"}, {"measurement": "Limit of toxicity, organic loading", "setting": "[2]; SMBR, at 25 mg BPA/L", "result": 7.71, "unit": "g BPA/kg VSS/d"}, {"measurement": "Limit of toxicity, volumetric loading", "setting": "[2]; SMBR, at 25 mg BPA/L", "result": "about 108 g BPA/m^3/d"}]}
